Test results as given in ChEMBL document CHEMBL1201862, “PubChem BioAssay data set” (2004).
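Cells were grown in 96-well plates and exposed to each compound for 48 hours at five concentrations; endpoints were interpolated linearly between bracketing concentrations, or set to the highest concentration if not reached. GI50: concentration for 50% inhibition of growth.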 The source made the active and inactive calls. Cut-off read from the data, not from the text of the source: active = GI50 up to about 1.1 µM and inactive = higher.

How the values were obtained:
Experiment in all cases: growth of human tumour cells (NCI), 48 h
OVCAR-8 = tested on: OVCAR-8
SNB-78 = tested on: SNB-78
EKVX = tested on: EKVX
KM-20L2 = tested on: KM-20L2
LOX IMVI = tested on: LOX IMVI
SK-MEL-2 = tested on: SK-MEL-2
DLD-1 = tested on: DLD-1
DMS-114 = tested on: DMS-114
COLO 205 = tested on: COLO 205
DMS-273 = tested on: DMS-273
NCI-H460 = tested on: NCI-H460
A549 = tested on: A549
OVCAR-5 = tested on: OVCAR-5
XF498 = tested on: XF498
MDA-MB-435 = tested on: MDA-MB-435
PC-3 = tested on: PC-3
Hs-578T = tested on: Hs-578T
NCI/ADR-RES = tested on: NCI/ADR-RES
MDA-MB-231 = tested on: MDA-MB-231
MDA-N = tested on: MDA-N

Compound	GI50 (OVCAR-8)	GI50 (SNB-78)	GI50 (EKVX)	GI50 (KM-20L2)	GI50 (LOX IMVI)	GI50 (SK-MEL-2)	GI50 (DLD-1)	GI50 (DMS-114)	GI50 (COLO 205)	GI50 (DMS-273)	GI50 (NCI-H460)	GI50 (A549)	GI50 (OVCAR-5)	GI50 (XF498)	GI50 (MDA-MB-435)	GI50 (PC-3)	GI50 (Hs-578T)	GI50 (NCI/ADR-RES)	GI50 (MDA-MB-231)	GI50 (MDA-N)
COC(=O)c1cc2c(s1)C(=O)c1ccccc1-2	> 100 µM (inactive)	> 100 µM (inactive)	> 100 µM (inactive)	> 100 µM (inactive)	> 100 µM (inactive)	> 100 µM (inactive)	> 100 µM (inactive)	> 100 µM (inactive)	> 100 µM (inactive)	> 100 µM (inactive)	> 100 µM (inactive)	> 100 µM (inactive)	> 100 µM (inactive)	–	–	–	–	–	–	–
C#CCN1C(=O)CN2C(Cl)(Cl)C2(c2ccccc2)c2cc(Cl)ccc21 (stereo not drawn)	> 100 µM (inactive)	–	50.4 µM (inactive)	33.3 µM (inactive)	88.1 µM (inactive)	94.4 µM (inactive)	45.3 µM (inactive)	51.5 µM (inactive)	54.5 µM (inactive)	41.7 µM (inactive)	54.8 µM (inactive)	–	> 100 µM (inactive)	–	–	–	–	–	–	–
O=C1N(C2CCCCC2)CC12CCCCC2	> 100 µM (inactive)	> 100 µM (inactive)	> 100 µM (inactive)	> 100 µM (inactive)	> 100 µM (inactive)	> 100 µM (inactive)	–	> 100 µM (inactive)	> 100 µM (inactive)	> 100 µM (inactive)	> 100 µM (inactive)	> 100 µM (inactive)	–	> 100 µM (inactive)	–	–	–	–	–	–
O=C(O)CNS(=O)(=O)c1ccc(NC(=O)c2ccc(F)cc2)cc1	> 100 µM (inactive)	–	> 100 µM (inactive)	> 100 µM (inactive)	> 100 µM (inactive)	> 100 µM (inactive)	> 100 µM (inactive)	–	> 100 µM (inactive)	> 100 µM (inactive)	> 100 µM (inactive)	> 100 µM (inactive)	> 100 µM (inactive)	> 100 µM (inactive)	–	–	–	–	–	–
COc1cc(C2C(C(=O)NCc3ccccc3)=C(C)NC(C)=C2C(=O)NCc2ccccc2)ccc1O	38.3 µM (inactive)	32.8 µM (inactive)	16.6 µM (inactive)	33.2 µM (inactive)	32.6 µM (inactive)	22.3 µM (inactive)	–	39.4 µM (inactive)	–	29.4 µM (inactive)	24.3 µM (inactive)	77.4 µM (inactive)	57.5 µM (inactive)	61.5 µM (inactive)	–	–	–	–	–	–
N#CC1(c2nc3ccccc3o2)C(=O)C(=O)N(C2C3CC4CC(C3)CC2C4)C(=O)C1=O (stereo not drawn)	> 100 µM (inactive)	> 100 µM (inactive)	> 100 µM (inactive)	> 100 µM (inactive)	> 100 µM (inactive)	> 100 µM (inactive)	–	> 100 µM (inactive)	> 100 µM (inactive)	> 100 µM (inactive)	> 100 µM (inactive)	> 100 µM (inactive)	> 100 µM (inactive)	> 100 µM (inactive)	–	–	–	–	–	–
CC(C)(CN1CCCCC1)C(=O)/C=C/c1c(Cl)cccc1Cl	2.18 µM (inactive)	–	0.834 µM (active)	–	0.811 µM (active)	1.49 µM (inactive)	–	–	1.57 µM (inactive)	–	1.61 µM (inactive)	1.95 µM (inactive)	1.48 µM (inactive)	–	0.7 µM (active)	1.91 µM (inactive)	2.17 µM (inactive)	1.86 µM (inactive)	0.789 µM (active)	0.792 µM (active)
CCCCCCc1cc2cc(C(=O)Nc3nc(C45CC6CC(CC(C6)C4)C5)cs3)c(=O)oc2cc1O	7.11 µM (inactive)	–	17.9 µM (inactive)	–	11.2 µM (inactive)	12.3 µM (inactive)	–	–	16.7 µM (inactive)	–	5.16 µM (inactive)	17.7 µM (inactive)	16 µM (inactive)	–	7.13 µM (inactive)	9.27 µM (inactive)	11.8 µM (inactive)	17.3 µM (inactive)	7.33 µM (inactive)	11.4 µM (inactive)
CCOc1ccc(NC(=O)C(=O)CC(=O)c2c(C)[n+]([O-])c3ccccc3[n+]2[O-])cc1	> 100 µM (inactive)	> 100 µM (inactive)	> 100 µM (inactive)	> 100 µM (inactive)	> 100 µM (inactive)	> 100 µM (inactive)	–	> 100 µM (inactive)	> 100 µM (inactive)	> 100 µM (inactive)	> 100 µM (inactive)	> 100 µM (inactive)	> 100 µM (inactive)	59.8 µM (inactive)	–	–	–	–	–	–
O=c1[nH]nc(-c2ccccc2)n1/N=C/c1ccccc1Cl	39.1 µM (inactive)	–	45.9 µM (inactive)	–	25.1 µM (inactive)	18 µM (inactive)	–	–	37.1 µM (inactive)	–	13 µM (inactive)	34.1 µM (inactive)	> 100 µM (inactive)	–	19.1 µM (inactive)	15.1 µM (inactive)	16.2 µM (inactive)	19.8 µM (inactive)	> 100 µM (inactive)	33.1 µM (inactive)
COc1ccc2c(OC)c3ccoc3nc2c1O	> 100 µM (inactive)	> 100 µM (inactive)	53.8 µM (inactive)	> 100 µM (inactive)	–	> 100 µM (inactive)	78.3 µM (inactive)	> 100 µM (inactive)	> 100 µM (inactive)	–	85.9 µM (inactive)	> 100 µM (inactive)	> 100 µM (inactive)	> 100 µM (inactive)	–	–	–	–	–	–
CCOC(=O)c1ccc(C(=O)n2ccnc2)[nH]1	> 100 µM (inactive)	–	> 100 µM (inactive)	–	> 100 µM (inactive)	> 100 µM (inactive)	–	–	> 100 µM (inactive)	–	> 100 µM (inactive)	> 100 µM (inactive)	> 100 µM (inactive)	–	> 100 µM (inactive)	> 100 µM (inactive)	> 100 µM (inactive)	> 100 µM (inactive)	> 100 µM (inactive)	> 100 µM (inactive)
CCOC(=O)CC[C@H](NC(=O)c1nc[nH]c1/N=N/N(C)C)C(=O)OCC	> 100 µM (inactive)	–	> 100 µM (inactive)	–	> 100 µM (inactive)	> 100 µM (inactive)	> 100 µM (inactive)	> 100 µM (inactive)	> 100 µM (inactive)	> 100 µM (inactive)	> 100 µM (inactive)	> 100 µM (inactive)	–	15.3 µM (inactive)	–	–	–	–	–	–
CCCCCCCC(=O)OCC1OC(n2cc(F)c(=O)[nH]c2=O)C(NC(=O)OCc2ccccc2)C(OC(=O)CCCCCCC)C1O (stereo not drawn)	34 µM (inactive)	41.9 µM (inactive)	42.5 µM (inactive)	34.7 µM (inactive)	15.1 µM (inactive)	21.6 µM (inactive)	–	24 µM (inactive)	26 µM (inactive)	15.3 µM (inactive)	35.5 µM (inactive)	25.1 µM (inactive)	–	–	–	–	–	–	–	–
O=c1c2ccccc2nc(-c2ccc(Br)cc2)n1NC1OC(CO)C(O)C(O)C1O (stereo not drawn)	91.4 µM (inactive)	> 100 µM (inactive)	78.3 µM (inactive)	> 100 µM (inactive)	–	> 100 µM (inactive)	–	96.6 µM (inactive)	59.8 µM (inactive)	> 100 µM (inactive)	> 100 µM (inactive)	> 100 µM (inactive)	> 100 µM (inactive)	–	–	–	–	–	–	–
CN(C)/N=C(/c1nc2ccc(Cl)cc2nc1O)C(O)c1ccc(C(O)/C(=N\N(C)C)c2nc3ccc(Cl)cc3nc2O)cc1 (stereo not drawn)	> 100 µM (inactive)	–	> 100 µM (inactive)	84.9 µM (inactive)	–	> 100 µM (inactive)	> 100 µM (inactive)	53.7 µM (inactive)	> 100 µM (inactive)	–	> 100 µM (inactive)	> 100 µM (inactive)	> 100 µM (inactive)	–	–	–	–	–	–	–
CS(=O)(=O)c1n[nH]c2nc(O)nc(O)c12	> 10 µM (inactive)	–	> 10 µM (inactive)	–	> 10 µM (inactive)	> 10 µM (inactive)	–	–	> 10 µM (inactive)	–	> 10 µM (inactive)	> 10 µM (inactive)	> 10 µM (inactive)	–	> 10 µM (inactive)	> 10 µM (inactive)	> 10 µM (inactive)	> 10 µM (inactive)	> 10 µM (inactive)	> 10 µM (inactive)
COc1ccc(/N=C\c2cc(OC)c(OC)c(OC)c2)cc1	> 100 µM (inactive)	> 100 µM (inactive)	> 100 µM (inactive)	> 100 µM (inactive)	17.5 µM (inactive)	> 100 µM (inactive)	> 100 µM (inactive)	57.4 µM (inactive)	–	–	85.9 µM (inactive)	> 100 µM (inactive)	> 100 µM (inactive)	> 100 µM (inactive)	–	–	–	–	–	–
C(=C\c1csnn1)/c1cccnc1	> 100 µM (inactive)	> 100 µM (inactive)	> 100 µM (inactive)	> 100 µM (inactive)	> 100 µM (inactive)	> 100 µM (inactive)	> 100 µM (inactive)	> 100 µM (inactive)	> 100 µM (inactive)	–	> 100 µM (inactive)	> 100 µM (inactive)	> 100 µM (inactive)	> 100 µM (inactive)	–	–	–	–	–	–
C=C(NC(=O)C(=C)NC(=O)c1ccc2c(n1)-c1coc(n1)C(=C)NC(=O)C(=C)NC(=O)c1nc(oc1C)C(=C)NC(=O)C(C(C)(C)O)NC(=O)C(=C)NC(=O)c1coc(n1)/C(=C/C)NC(=O)[C@H]([C@@H](C)O)NC(=O)c1csc-2n1)C(N)=O (stereo partly drawn)	> 87.5 µM (inactive)	–	> 87.5 µM (inactive)	–	53.8 µM (inactive)	> 87.5 µM (inactive)	–	–	72.9 µM (inactive)	–	59.2 µM (inactive)	> 87.5 µM (inactive)	> 87.5 µM (inactive)	–	> 87.5 µM (inactive)	> 87.5 µM (inactive)	> 87.5 µM (inactive)	> 87.5 µM (inactive)	> 87.5 µM (inactive)	> 87.5 µM (inactive)
CSc1nc2nc(C)c(C)nc2c(=O)[nH]1	> 100 µM (inactive)	–	> 100 µM (inactive)	> 100 µM (inactive)	> 100 µM (inactive)	> 100 µM (inactive)	> 100 µM (inactive)	> 100 µM (inactive)	> 100 µM (inactive)	> 100 µM (inactive)	> 100 µM (inactive)	> 100 µM (inactive)	> 100 µM (inactive)	> 100 µM (inactive)	–	–	–	–	–	–
